Among the data in US10392630B2, “Plants having increased tolerance to herbicides” (BASF AGRO B.V., priority 2013, dated 2019) are IC50 values, retold here.

The test system of the experiment is Alopecurus wildtype PPO (ALOMY), PPO herbicide sensitive PPO2, SEQ ID NO 2. Put plainly: PPO enzyme assay, dose-response (fluorescence), wildtype Alopecurus PPO2. Format: biochemical, Alopecurus myosuroides. Conditions: Table 3b; SEQ ID NO 2, WT.
Turning to `C#CCN1C(=O)C(F)(F)Oc2cc(F)c(-n3c(=O)cc(C(F)(F)F)n(C)c3=O)cc21` [1-methyl-6-(trifluoromethyl)-3-(2,2,7-trifluoro-3-oxo-4-prop-2-ynyl-1,4-benzoxazin-6-yl)pyrimidine-2,4-dione], the IC50 stood at 0.189 nM.

The compound `COC(Oc1ccccc1Oc1cc(-n2c(=O)cc(C(F)(F)F)n(C)c2=O)c(F)cc1Cl)C(=O)OCC(F)F` (centres unmarked) [2,2-difluoroethyl 2-[2-[2-chloro-4-fluoro-5-[3-methyl-2,6-dioxo-4-(trifluoromethyl)pyrimidin-1-yl]phenoxy]phenoxy]-2-methoxy-acetate] yielded an IC50 of 0.335 nM.

In the case of `C#CCN1C(=O)C(F)(F)Oc2cc(F)c(N3C(=O)C4=C(CCCC4)C3=O)cc21` [2-(2,2,7-trifluoro-3-oxo-4-prop-2-ynyl-1,4-benzoxazin-6-yl)-4,5,6,7-tetrahydroisoindole-1,3-dione], the IC50 came out at 0.243 nM.

As to `CCOCCOC(=O)C(OC)Oc1ccccc1Oc1cc(-n2c(=O)cc(C(F)(F)F)n(C)c2=O)c(F)cc1Cl` (centres unmarked) [2-ethoxyethyl 2-[2-[2-chloro-4-fluoro-5-[3-methyl-2,6-dioxo-4-(trifluoromethyl)pyrimidin-1-yl]phenoxy]phenoxy]-2-methoxy-acetate], the IC50 was found to be 0.816 nM.

With `COC(Oc1ccccc1Oc1cc(-n2c(=O)cc(C(F)(F)F)n(C)c2=O)c(F)cc1Cl)C(=O)OCc1ccncc1` (centres unmarked) [4-pyridylmethyl 2-[2-[2-chloro-4-fluoro-5-[3-methyl-2,6-dioxo-4-(trifluoromethyl)pyrimidin-1-yl]phenoxy]phenoxy]-2-methoxy-acetate], the IC50 stood at 0.671 nM.

In the case of `COC(Oc1ccccc1Oc1cc(-n2c(=O)cc(C(F)(F)F)n(C)c2=O)c(F)cc1Cl)C(=O)OCC1(C)CC1` (centres unmarked) [(1-methylcyclopropyl)methyl 2-[2-[2-chloro-4-fluoro-5-[3-methyl-2,6-dioxo-4-(trifluoromethyl)pyrimidin-1-yl]phenoxy]phenoxy]-2-methoxy-acetate], 0.751 nM corresponded to half-maximal inhibition (IC50).

`C=CCOC(=O)C(C)(C)OC(=O)c1cc(-n2c(=O)cc(C(F)(F)F)n(C)c2=O)ccc1Cl` [BUTAFENACIL] returned an IC50 of 0.0131 nM.

`CCOC(=O)C(Cl)Cc1cc(-n2nc(C)n(C(F)F)c2=O)c(F)cc1Cl` (centres unmarked) [CARFENTRAZONE-ETHYL] registered an IC50 of 1.47 nM.

In the case of `CCOC(=O)/C(Cl)=C/c1cc(N2C(=O)C3=C(CCCC3)C2=O)ccc1Cl` [CINIDON-ETHYL, ethyl (Z)-2-chloro-3-[2-chloro-5-(1,3-dioxo-4,5,6,7-tetrahydroisoindol-2-yl)phenyl]prop-2-enoate], 81.2 nM corresponded to half-maximal inhibition (IC50).

As to `C#CCN1C(=O)COc2cc(F)c(N3C(=O)C4=C(CCCC4)C3=O)cc21` [FLUMIOXAZIN, 2-(7-fluoro-3-oxo-4-prop-2-ynyl-1,4-benzoxazin-6-yl)-4,5,6,7-tetrahydroisoindole-1,3-dione], the IC50 came to 0.144 nM.

`CS(=O)(=O)NC(=O)c1cc(Oc2ccc(C(F)(F)F)cc2Cl)ccc1[N+](=O)[O-]` [FOMESAFEN] displayed an IC50 of 90.3 nM.

The compound `CCOC(=O)C(C)OC(=O)c1cc(Oc2ccc(C(F)(F)F)cc2Cl)ccc1[N+](=O)[O-]` (centres unmarked) [LACTOFEN, (2-ethoxy-1-methyl-2-oxo-ethyl) 5-[2-chloro-4-(trifluoromethyl)phenoxy]-2-nitro-benzoate] yielded an IC50 of 18.7 nM.

Consider `CCOc1cc(Oc2ccc(C(F)(F)F)cc2Cl)ccc1[N+](=O)[O-]` [OXIFLUORFEN, 2-CHLORO-1-(3-ETHOXY-4-NITROPHENOXY)-4-(TRIFLUOROMETHYL)BENZENE], for which half-maximal inhibition (IC50) was put at 8.24 nM.

`COC(Oc1ccccc1Oc1cc(-n2c(=O)cc(C(F)(F)F)n(C)c2=O)c(F)cc1Cl)C(=O)OC1CCCCC1` (centres unmarked) [cyclohexyl 2-[2-[2-chloro-4-fluoro-5-[3-methyl-2,6-dioxo-4-(trifluoromethyl)pyrimidin-1-yl]phenoxy]phenoxy]-2-methoxy-acetate] gave an IC50 of 2.99 nM.

Broadly, the IC50 is the concentration that inhibits the measured activity by half. High values mean a need for much substance, low ones inhibition by little substance.
